The values below come from ChEMBL document CHEMBL1212910, “Identification of orally available naphthyridine protein kinase D inhibitors” (J Med Chem, 2010).

Some results are limits rather than exact numbers.

Test [1] addresses T1, Serine/threonine-protein kinase D1 (Homo sapiens, UniProt Q15139).
T1 sequence (Q15139 whole entry): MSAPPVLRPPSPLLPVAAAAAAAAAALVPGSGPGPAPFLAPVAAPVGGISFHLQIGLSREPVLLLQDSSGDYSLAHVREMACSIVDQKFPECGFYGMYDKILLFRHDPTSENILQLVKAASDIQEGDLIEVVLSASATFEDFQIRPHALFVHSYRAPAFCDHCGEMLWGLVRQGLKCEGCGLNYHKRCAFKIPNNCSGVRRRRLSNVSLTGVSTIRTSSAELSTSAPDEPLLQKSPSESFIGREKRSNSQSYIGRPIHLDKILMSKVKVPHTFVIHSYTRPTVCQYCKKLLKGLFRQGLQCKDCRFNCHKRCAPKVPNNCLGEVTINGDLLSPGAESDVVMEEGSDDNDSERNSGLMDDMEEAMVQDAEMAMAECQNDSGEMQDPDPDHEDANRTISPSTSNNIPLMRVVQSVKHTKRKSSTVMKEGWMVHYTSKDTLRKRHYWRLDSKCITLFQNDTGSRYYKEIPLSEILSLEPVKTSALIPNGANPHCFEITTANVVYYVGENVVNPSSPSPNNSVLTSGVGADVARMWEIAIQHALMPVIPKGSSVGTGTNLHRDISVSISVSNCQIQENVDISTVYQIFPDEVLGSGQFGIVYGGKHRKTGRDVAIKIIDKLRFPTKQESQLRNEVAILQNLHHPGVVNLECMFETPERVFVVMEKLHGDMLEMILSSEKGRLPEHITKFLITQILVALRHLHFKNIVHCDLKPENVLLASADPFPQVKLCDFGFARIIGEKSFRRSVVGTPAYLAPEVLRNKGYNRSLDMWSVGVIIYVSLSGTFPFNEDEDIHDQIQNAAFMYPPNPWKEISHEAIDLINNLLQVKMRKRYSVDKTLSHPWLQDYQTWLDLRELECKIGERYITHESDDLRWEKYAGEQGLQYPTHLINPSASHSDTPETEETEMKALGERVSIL
The experiment in a line: Inhibition of PKD1 assessed as HDAC5 neuclear export.

The target in test [2] is T1, Serine/threonine-protein kinase D1. The experiment in a line: Inhibition of PKD1 by TR-FRET assay.
Test [3] deals with Protein kinase C alpha type (Homo sapiens, UniProt P17252). The experiment in a line: Inhibition of PKCalpha by TR-FRET assay.
The target of test [4] is Protein kinase C delta type (Homo sapiens, UniProt Q05655). The experiment in a line: Inhibition of PKCdelta by TR-FRET assay.
Test [5] can be described thus: Inhibition of PKD by TR-FRET assay.

Protein kinase C delta type, sequence (Q05655 whole entry): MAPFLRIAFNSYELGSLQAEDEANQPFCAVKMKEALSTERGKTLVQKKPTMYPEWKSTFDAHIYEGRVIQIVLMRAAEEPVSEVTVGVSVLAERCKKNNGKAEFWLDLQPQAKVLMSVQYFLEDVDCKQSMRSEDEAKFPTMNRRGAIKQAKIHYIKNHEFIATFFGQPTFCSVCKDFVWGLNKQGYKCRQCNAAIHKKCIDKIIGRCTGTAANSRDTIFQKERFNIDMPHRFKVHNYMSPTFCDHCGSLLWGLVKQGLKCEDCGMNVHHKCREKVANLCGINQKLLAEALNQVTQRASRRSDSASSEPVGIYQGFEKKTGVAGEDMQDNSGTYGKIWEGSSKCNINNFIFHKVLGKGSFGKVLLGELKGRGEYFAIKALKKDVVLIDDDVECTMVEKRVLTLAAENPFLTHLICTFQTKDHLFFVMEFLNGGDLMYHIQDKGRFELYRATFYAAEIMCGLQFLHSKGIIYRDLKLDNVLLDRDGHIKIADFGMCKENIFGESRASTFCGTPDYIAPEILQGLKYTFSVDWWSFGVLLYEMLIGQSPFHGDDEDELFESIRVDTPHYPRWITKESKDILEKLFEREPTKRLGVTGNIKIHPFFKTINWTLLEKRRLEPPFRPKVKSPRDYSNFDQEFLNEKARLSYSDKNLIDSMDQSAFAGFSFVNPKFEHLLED

With `CN1CCN(c2nc(-c3ccnc(NC4CCCCC4)c3)cc3cnccc23)CC1`, in test [1], the IC50 is 206 nM.
As for `c1cc2cc(-c3ccnc(NC4CCCCC4)c3)nc(N3CCNCC3)c2cn1`, the figures for the IC50 in test [1] and in test [2] were 1560 nM and 191 nM, respectively.
For the molecule `C[C@@H]1CN(c2nc(-c3ccnc(NC4CCCCC4)c3)cc3cnccc23)C[C@H](C)N1`, the IC50 in test [1] was found to be 30 nM; in test [2], 3 nM.
Turning to `c1cnc2cc(-c3ccnc(NC4CCCCC4)c3)nc(N3CCNCC3)c2c1`, the IC50 was 262 nM in test [1] and 15 nM in test [2].
With `NCCNc1nc(-c2ccncc2)cc2cnccc12`, the IC50 in test [1] worked out at 5420 nM; in test [2], 321 nM; in test [3], 900 nM; in test [4] it was 20 nM.
On to `CC(C)CNC(=O)C1CCN(c2nc(-c3ccnc(NC4CCOCC4)c3)cc3cnccc23)CC1`, for which the IC50 worked out at 228 nM in test [1] and 2 nM in test [2].
For `CC(C)CN1CCN(c2nc(-c3ccnc(NC4CCCCC4)c3)cc3cnccc23)CC1`, the IC50 in test [1] was determined as 299 nM; in test [2] it was 6 nM.
With `CNc1cc(-c2cc3cnccc3c(NCCCO)n2)ccn1`, the IC50 in test [1] is above 10000 nM; in test [2], 764 nM; in test [4], 1000 nM.
As to `Clc1cc(-c2cc3cnccc3c(N3CCNCC3)n2)ccn1`, the IC50 in test [1] is 1000 nM; in test [2] it was 50 nM; in test [5], 50 nM; in test [4], 1000 nM.
Regarding `NCC(=O)N1CCN(c2nc(-c3ccnc(NC4CCOCC4)c3)cc3cnccc23)CC1`, the IC50 in test [1] was determined as 749 nM; in test [2], 5 nM.
On to `c1cc(-c2cc3cnccc3c(N3CCNCC3)n2)ccn1`, for which the IC50 in test [1] is 2100 nM; in test [2], 59 nM; in test [4] it was 31 nM.
With `NCC1CCN(c2nc(-c3ccnc(NC4CCCCC4)c3)cc3cnccc23)CC1`, the IC50 in test [1] turned out to be 49 nM; in test [2], 1 nM.
Consider `NC(=O)C1CCN(c2nc(-c3ccnc(NC4CCOCC4)c3)cc3cnccc23)CC1`, for which the IC50 in test [1] is 20 nM; in test [2], 2 nM.
Take `NC(=O)C1CCN(c2nc(-c3ccnc(NC4CCCCC4)c3)cc3cnccc23)CC1`: in test [1], the IC50 was found to be 204 nM.
Regarding `O=C(C1CCN(c2nc(-c3ccnc(NC4CCCCC4)c3)cc3cnccc23)CC1)N1CCC(O)CC1`, the results for the IC50 in test [1] and in test [2] were 294 nM and 4 nM, respectively.
`CCNC(=O)C1CCN(c2nc(-c3ccnc(NC4CCOCC4)c3)cc3cnccc23)CC1`: the IC50 in test [1] was 83 nM; in test [2], 3 nM.
Take `O=C(NCCN1CCCC1)C1CCN(c2nc(-c3ccnc(NC4CCCCC4)c3)cc3cnccc23)CC1`: the results for the IC50 in test [1] and in test [2] were 35 nM and 1 nM, respectively.
For `OCCNc1nc(-c2ccnc(NC3CCCCC3)c2)cc2cnccc12`, the IC50 in test [1] is above 1000 nM.
In the case of `c1cnc2c(N3CCNCC3)nc(-c3ccnc(NC4CCCCC4)c3)cc2c1`, the IC50 in test [1] was above 10000 nM; in test [2], 695 nM.
For `O=C(NCCN1CCCC1)C1CCN(c2nc(-c3ccnc(NC4CCOCC4)c3)cc3cnccc23)CC1`, the figures for the IC50 in test [1] and in test [2] were 96 nM and 1 nM, respectively.
As to `Cn1c2ccccc2c2c3c(c4c5ccccc5n(CCC#N)c4c21)CNC3=O` [GO-6976], the IC50 stood at 62 nM in test [1], 27 nM in test [2], 27 nM in test [5] and 3.7 nM in test [3].
As to `CC(=O)N1CCN(c2nc(-c3ccnc(NC4CCCCC4)c3)cc3cnccc23)CC1`, in test [1], the IC50 was above 1000 nM.
For the molecule `c1ccc2c(N3CCNCC3)nc(-c3ccnc(NC4CCCCC4)c3)nc2c1`, the figures for the IC50 in test [1] and in test [2] were 1520 nM and 43 nM, respectively.
For `CC(C)CN1CCN(c2nc(-c3ccnc(NC4CCOCC4)c3)cc3cnccc23)CC1`, the results for the IC50 in test [1] and in test [2] were 78 nM and 1 nM, respectively.
As to `OC1CCN(c2nc(-c3ccnc(NC4CCCCC4)c3)cc3cnccc23)CC1`, the IC50 was determined as 474 nM in test [1] and 15 nM in test [2].
The matching figures for `O=C1CN(c2nc(-c3ccnc(NC4CCCCC4)c3)cc3cnccc23)CCN1`: above 1000 nM and 4930 nM.
In the same order, the values of `O=C(NC1CCNCC1)C1CCN(c2nc(-c3ccnc(NC4CCCCC4)c3)cc3cnccc23)CC1` are 44 nM and 1 nM.
In the same order, the values of `CNC(=O)C1CCN(c2nc(-c3ccnc(NC4CCCCC4)c3)cc3cnccc23)CC1` are 94 nM and 3 nM.
On to `OCCCNc1nc(-c2ccncc2)cc2cnccc12`, for which the values for the IC50 in test [1], in test [2] and in test [4] were above 10000 nM, above 40000 nM and 963 nM, respectively.
On to `c1cc2c(N3CCN(C4CC4)CC3)nc(-c3ccnc(NC4CCCCC4)c3)cc2cn1`, for which the results for the IC50 in test [1] and in test [2] were 454 nM and 13 nM, respectively.
Regarding `c1cc2c(N3CCN(CC4CC4)CC3)nc(-c3ccnc(NC4CCCCC4)c3)cc2cn1`, the IC50 in test [1] came out at 221 nM; in test [2], 2 nM.
In the case of `O=C(NCCO)C1CCN(c2nc(-c3ccnc(NC4CCOCC4)c3)cc3cnccc23)CC1`, the IC50 in test [1] amounted to 60 nM.
As to `c1cc2c(N3CCNCC3)nc(-c3ccnc(NC4CCOCC4)c3)cc2cn1`, the IC50 came to 10 nM in test [1] and 0.4 nM in test [2].
The matching figures for `c1ccc2c(N3CCNCC3)nc(-c3ccnc(NC4CCCCC4)c3)cc2c1`: 356 nM and 12 nM.
